As usually defined, the IC50 is the concentration that gives 50% inhibition.

This note sets out measurements from PMC11537999, “Identification of human pregnane X receptor antagonists utilizing a high-throughput screening platform” (Frontiers in Pharmacology, 2024).

In one data set the target is T1, hPXR (Homo sapiens, UniProt O75469).
T1 construct: expressed in transfected cells; provided by Dr. Taosheng Chen, St. Jude
T1 sequence (O75469 1-434): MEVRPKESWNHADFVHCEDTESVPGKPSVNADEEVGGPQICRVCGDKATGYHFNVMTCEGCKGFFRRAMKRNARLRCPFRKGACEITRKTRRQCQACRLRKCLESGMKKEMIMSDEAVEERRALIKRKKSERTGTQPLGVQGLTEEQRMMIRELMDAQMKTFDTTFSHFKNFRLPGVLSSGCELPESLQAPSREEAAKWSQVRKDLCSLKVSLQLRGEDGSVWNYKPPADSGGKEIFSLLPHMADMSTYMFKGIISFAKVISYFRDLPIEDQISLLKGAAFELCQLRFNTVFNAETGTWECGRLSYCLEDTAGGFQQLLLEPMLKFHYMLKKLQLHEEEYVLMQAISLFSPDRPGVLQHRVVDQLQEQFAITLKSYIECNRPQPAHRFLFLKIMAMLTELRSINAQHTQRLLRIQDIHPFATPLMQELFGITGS
Put plainly: Pharmacological inhibition (IC50 shift) assay with varying rifampicin in HepG2-CYP3A4-hPXR cells. Type of data set: cell-based. The conditions noted are these: for shift in IC50 values with increasing rifampicin (in words): 5 μM, 7.5 µM or 10 µM rifampicin; for decrease in potency: co-treated with 2 µM versus 10 µM rifampicin; for IC50: triplicate. As to the method: HepG2-CYP3A4-hPXR cells were dispensed into tissue culture treated 1536-well white assay plates (Greiner Bio-One North America, Monroe, NC) using a Multidrop Combi (Thermo Fisher Scientific Inc., Waltham, Massachusetts) at 2,500 cells/4 µL/well. The cell suspension was prepared using new assay media, which contained phenol red-free DMEM (GIBCO), 5% charcoal/dextran-treated FBS (Invitrogen), 1 mM sodium pyruvate (Invitrogen), 2 mM L-Glutamine (Invitrogen), and 100 U/mL of Penicillin and 100 μg/mL of Streptomycin (Invitrogen). All plates were then incubated for 4 h in a 37°C and 5% CO2 incubator. […] In the primary screen, each compound was tested at 7 concentrations ranging from 46 μM to 1.5 nM. 1 μL of rifampicin, a known PXR agonist, was also co-treated in each well, generating a final concentration of 2 μM, using a Flying Reagent Dispenser (Aurora Discovery, Carlsbad, California). All assay plates were placed in an incubator at 37°C with 5% CO2 for 23 h. Following the incubation period, 1 µL of CellTiter-Fluor reagent (Promega, Madison, Wisconsin) was added to each well and all assay plates were placed back into the incubator set at 37°C and 5% CO2 for 1 h. Fluorescence intensity at 540 nm was measured following excitation at 405 nm using a ViewLux plate reader (Perkin Elmer, Shelton, Connecticut), in order to assess cell viability following treatment. Directly after the fluorescent read, 4 μL of ONE-Glo Luciferase reagent (Promega, Madison, Wisconsin) was added to each well using a Flying Reagent Dispenser, and plates were left to sit at room temperature for 30 min. The luminescence of each plate was then measured using the ViewLux plate reader and data were expressed as relative luminescence units. Gross assay performance was assessed by calculating quality metrics, such as coefficient of variance (CV), signal-to-background ratio (S/B), and Z′ factor, a measure of statistical effect size frequently used to judge whether an assay can be scaled up to a large high-throughput screen ([Zhang et al., 1999]).
Each curve was co-treated with 5 μM RIF, 7.5 μM RIF, or 10 μM RIF (a well-known PXR agonist) to determine pharmacological activity. […] Each curve was generated from a combination of all data points together.

The next data set deals with CYP3A4 mRNA expression. As to the kind of experiment: Co-treatment pharmacological assay: CYP3A4 mRNA by qRT-PCR in HepaRG cells co-treated with rifampicin. Type of data set: cell-based, human. To be noted: for inhibition of CYP3A4 mRNA expression under rifampicin co-treatment (in words): IC50, IC70 or IC90 concentration + 5 μM rifampicin. As to the method: Fully differentiated NoSpin™ HepaRG™ cells (Lonza, Walkersville, Maryland) were seeded into 12-well collagen-coated plates (Corning) at a density of 8 × 10^5 cells/well using Williams’ E medium (ThermoFisher) supplemented with HepaRG™ thawing and plating medium supplement (Lonza), 25 U/mL penicillin, and 25 μg/mL streptomycin (Invitrogen). The cells were then placed into a 37°C and 5% CO2 incubator for 3 days including a media change before treatment. Cells were then treated with the vehicle control (final concentration of 0.1% DMSO), the positive controls, or test compounds for 24 h before harvesting.
Total RNA was extracted from the cell lysate using an RNeasy Mini kit (Qiagen) according to the manufacturer’s instructions. RNA was reverse transcribed to cDNA using a High-Capacity RNA-to-cDNA kit (Applied Biosystems). CYP3A4 and CYP2B6 mRNA expression were both measured and normalized to the glyceraldehyde-3-phosphate dehydrogenase (GAPDH) housekeeping gene. Real-time PCR was completed using a QuantStudio Real-Time PCR system (Applied Biosystems) with TaqMan probes (CYP3A4 Assay ID: Hs00604506_m1, CYP2B6 Assay ID: Hs04183483_g1, GAPDH Assay ID: Hs99999905_m1, ThermoFisher Scientific, Waltham, MA). Following amplification, induction values were calculated using the equation: Fold = 2^−ΔΔCt, where ΔCt represents the difference in number of cycles required to reach the Ct threshold between CYP3A4 or CYP2B6 and GAPDH, and ΔΔCt represents the relative change in these differences between the control (DMSO) and treatment groups. Experimental data are expressed as a mean of triplicate values ±SD. Statistical analysis was performed using one-way analysis of variance with post hoc Dunnett’s analysis. The statistical significance values were set at p < 0.05 (*), p < 0.01 (**), and p < 0.001 (***).
As previously mentioned, HepG2 cells are not metabolically competent and therefore use of HepaRG cells or human primary hepatocytes is a better choice to confirm PXR antagonists. […]
On the technique in general: In qPCR the cycle at which signal appears reflects the starting amount.

Consider `COc1cc(-c2cn(C3CCc4c(F)cccc4N(CC(F)(F)F)C3=O)nn2)ccc1-n1cnc(C)c1` (stereo not shown) [GSM2], for which the “shift in IC50 values with increasing rifampicin (in words)” value at hPXR is “generated a shift in IC50 values”. Besides, the decrease in potency entry at hPXR is reported as “more than 2 fold”. The IC50 at hPXR (co-treated with 5 μM RIF) was determined as 1.6 µM; at hPXR (co-treated with 7.5 μM RIF) it was 3.32 µM; at hPXR (co-treated with 10 μM RIF) it was 5.46 µM. Moreover, the “CYP3A4 mRNA expression, average level” value with CYP3A4 mRNA expression (15 μM compound + 5 μM rifampicin, DMSO = 1) was found to be 0.6 fold. The “inhibition of CYP3A4 mRNA expression under rifampicin co-treatment (in words)” value in the data set on CYP3A4 mRNA expression is given as “clear concentration dependent inhibition of CYP3A4 mRNA expression”.

Turning to `CC(=O)O[C@H]1C[C@@]2(C)[C@@H](C[C@@H](O)[C@H]3[C@@]4(C)CC[C@@H](O)[C@@H](C)[C@@H]4CC[C@@]32C)/C1=C(\CCC=C(C)C)C(=O)O` [fusidic acid], at hPXR, the “shift in IC50 values with increasing rifampicin (in words)” value is listed as “generated a shift in IC50 values”. For the same compound, the decrease in potency result at hPXR is reported as “more than 2 fold”. For the same compound, the IC50 on hPXR (co-treated with 5 μM RIF) came to 3.46 µM; at hPXR (co-treated with 7.5 μM RIF), 4.57 µM; on hPXR (co-treated with 10 μM RIF) it was 7.76 µM. In the data set on CYP3A4 mRNA expression, the “inhibition of CYP3A4 mRNA expression under rifampicin co-treatment (in words)” value is “clear concentration dependent inhibition of CYP3A4 mRNA expression”.
